“Also recorded” adds a separate entry of the source.
Assays:
[1] = test system: peripheral blood lineages; parameters: species or system mice; conditions: mouse, in vivo
Text: Data are shown as a moving average with each point representing the mean of three consecutive […]. Error bars are +/− of the standard error of the mean for all data points associated with the moving average. The solid black bar in the lower left of each graph indicates the duration of the PD0332991 treatment. Data from PD0332991 treated mice is shown by the unshaded squares. For comparison, data from mice that had not been treated with PD0332991 is shown in shaded circles.
For TBI experiments, mice were irradiated using a ^137Cs source (AECL Gammacell 40 Irradiator, Atomic Energy of Canada Ltd, Mississauga, Ontario, Canada). Delivered doses were at or near the empirically determined LD90 of 7.5 Gy, consistent with prior studies. See Na Nakorn et al., J. Clin. Invest., 109, 1579-1585 (2002); Herodin et al., Blood, 101, 2609-2616 (2003); Uckun et al., Blood, 75, 638-645 (1990); and Wang et al., Proc. Natl. Acad. Sci., USA, 94, 14590-14595 (1997). Peripheral blood was collected using a tail vein nick for complete blood cells (CBCs) and analyzed with a HemaTrue analyzer (Heska Co., Loveland, Colo., United States of America).
These observations are consistent with the kinetics and degree of myelosuppression seen when tumor bearing mice (see Ramsey et al., Cancer Res., 67, 4732-4741 (2007); and Fry et al., Mol. Cancer Ther., 3, 1427-1438 (2004)) and human patients with malignancies (see O'Dwyer et al., “A Phase I does escalation trial of a daily oral CDK4/6 Inhibitor PD 0332991” in American Society of Clinical Oncology (ASCO, Chicago, Ill., 2007)) are serially treated with PD0332991. The noted decreases might be expected to enhance the adverse effects of radiation therapy. However, unexpectedly as shown herein, hematopoietic cells are protected from adverse effects.

[2] = test system: KPTR1, KPTR4 and KPTR5 melanoma cell lines; experiment: Cell cycle analysis (BrdU incorporation in vitro) in murine melanoma cell lines; assay type: cell-based; conditions: 24 hours treatment
Text: FIG. 2C is a set of graphs showing the dose-response curves for cell cycle analysis in murine (KPTR1, KPTR4 and KPTR5 from TyrRAS+Ink4a/Arf−/−mice) melanoma cell lines. […] The percentage of cells in the G1 phase is indicated by the data shown in the closed squares. The percentage of cells in the S phase is shown by the data in the open triangles. The percentage of cells in the G2/M phase is indicated by the data in the open circles. The percentage of cells actively proliferating as marked by Ki67 positive staining is shown in closed diamonds. Error bars are +/− the standard error of the mean (SEM).
Cell Lines: KPTR1, KPTR4. and KPTR5 were derived from tumor-bearing TyrRAS+Ink4a/Arf−/− by standard procedures and cultured in RPMI+10% fetal bovine serum (FBS). Telomerized HDFs (tHDFs, also known as HS68) were cultured in DMEM+10% FBS with penicillin and streptomycin. […]
BrdU Incorporation in vitro: Cells were plated and allowed to adhere overnight or at least 6 hours prior to adding CDK4/6 inhibitor at the indicated concentrations. […] The cells were then washed, trypsinized, pelleted, fixed, permeabilized, stained, and measured on a flow cytometer as described in manufacturer directions for the BrdU Kit (BD Biosciences Pharmingen, San Diego, Calif., United States of America).

[3] = test system: TyrRAS+Ink4a/Arf−/− melanoma; experiment: Tumor-bearing mice given 7.5 Gy TBI: tumor growth and mortality; assay type: in vivo
Protocol: Tumor growth with (open squares) or without (closed diamonds) a single dose of 6-acetyl-8-cyclopentyl-5-methyl-2-(5-piperazin-1-yl-pyridin-2-ylamino)-8H-pyrido-[2,3-d]-pyrimidin-7-one (PD0332991) administered 4 hours prior to 7.5 gray (Gy) total body irradiation (TBI). […] Error bars indicate standard error of the mean.
FIG. 2E is a set of Kaplan-Meyer survival curves showing overall mortality, tumor-specific mortality and mortality to radiation toxicity of tumor bearing mice treated with 7.5 gray (Gy) of total body irradiation (TBI) with (solid line, n=8) or without (dashed line n=11) 6-acetyl-8-cyclopentyl-5-methyl-2-(5-piperazin-1-yl-pyridin-2-ylamino)-8H-pyrido-[2,3-d]-pyrimidin-7-one (PD 0332991) treatment 4 hours prior to ionizing radiation (IR). P-values calculated using the log-rank test.
Young adult (6-12 weeks of age), virgin female C57B1/6 mice were purchased from Jackson Labs (Bar Harbor, Me., United States of America). […] Experiments on tumor-bearing TyrRAS+Ink4a/Arf−/− mice (see Chin et al., Genes & development, 11, 2822-2834 (1997)) were performed in animals fully backcrossed (N>10) to the FVB/n background. Mice were treated as previously described (see Ramsey et al., Cancer Res., 67, 4732-4741 (2007)) with PD 0332991 obtained from Pfizer Inc., (New York, N.Y., United States of America) given by oral gavage at a dose of 150 mg/kg body weight. TyrRAS+Ink4a/Arf−/− mice were serially observed until tumor development. When tumors were about 0.2 cm^2 in size, daily PD 0332991 treatment was begun. […] Tumor-bearing mice were euthanized at the indicated times for morbidity, tumor ulceration, or tumor size >1.5 cm in diameter.

bone marrow cells = experiment: Bone marrow cellularity, immunophenotypic frequency, apoptosis and viability; assay type: in vivo, mice; conditions: 48 hour treatment
Protocol: For HSPC proliferation experiments, mice received daily oral gavage with PD0332991 for 2 days with 1 mg BrdU intraperitoneal injection every 6 hours for 24 hours prior to sacrifice. BM-MNC harvest and immunophenotyping was performed using RBC lysis, biotin-conjugated Lin-panel incubation (Invitrogen Corporation, Carlsbad, Calif., United States of America), paramagnetic bead-conjugated straptavidin (Miltinyi Biotec, Bergisch Gladbach, Germany) incubation, and magnetic depletion using an AutoMACS (Miltinyi Biotec, Bergisch Gladbach, Germany). At least 2×10^6 Lin-depleted cells per mouse were incubated with fluorescently labeled antibodies against cell surface antigens used to identify hematopoietic progenitor subpopulations as previously described (see Passegue et al., J. Exp. Med., 202, 1599-1611 (2005); and Kiel et al., Cell, 121, 1109-1121 (2005): CD34-FITC, CD16/32-PacificBlue, IL7Ra-PE-Cy5, and cKit-APC-Alexa750 from eBiosciences, Inc. (San Diego, Calif., United States of America); Sca1-PE-Cy7, CD150-PE-Cy5, and CD48-PacificBlue from BioLegend (San Diego, Calif., United States of America); and Aqua Live/Dead viability dye (Invitrogen Corporation, Carlsbad, Calif., United States of America). Streptavidin-PE-TexasRed (Invitrogen Corporation, Carlsbad, Calif., United States of America) was used to confirm efficiency of lineage-depletion. After cell surface staining, cells were fixed, permeabilized, and stained with antibodies against Ki67-FITC, BrdU-APC, and caspase3-PE (BD Biosciences Pharmingen, San Diego, Calif., United States of America).
In all experiments, gating based on isotype controls was used as appropriate. Flow cytometry was performed using a CyAn ADP (Dako, Glostrup, Denmark) and analyzed with FlowJo software (Tree Star, Ashland, Oreg., United States of Ameria). For each bone marrow sample, a minimum of 200,000 cells were analyzed. For cell culture samples, a minimum of 20,000 cells were analyzed.
The effects on immunophenotypic HSPC frequency were validated by other methods.

[4] = treatment 4 hours prior to 7.5 Gy TBI

In the case of CC(=O)c1c(C)c2cnc(Nc3ccc(N4CCNCC4)cn3)nc2n(C2CCCC2)c1=O [PD0332991, 6-acetyl-8-cyclopentyl-5-methyl-2-(5-piperazin-1-yl-pyridin-2-ylamino)-8H-pyrido-[2,3-d]-pyrimidin-7-one], the “time to begin of improvement upon cessation” value [1] is reported as ≤ 4 days, the “treatment time after which decrease became apparent” value [1] is reported as 8 days and the “erythroid, platelet and myeloid lineages” value ([1]; po, 150 mg/kg) is reported as “modest decrease”. For the same compound, the “sensitivity of derivative tumor cell lines in vitro” value [2] was “insensitive”, the “anti-tumor effect of therapeutic IR” value ([3]; single dose 4 hours prior to 7.5 Gy TBI) was “does not decrease that anti-tumor effect of therapeutic radiotherapy” and the “mortality to radiation toxicity” value [3, 4] was “does appear to provide protection from radiation toxicity”. For the same compound, the tumor-related mortality [3, 4] was “does not appear to increase tumor-related mortality”, the “HSC and MPP frequencies” value (bone marrow cells) was “relative increase; also recorded: relative enrichment” and the “Lin− or HSC apoptosis or viability” value (bone marrow cells) was “without altering”. For the same compound, the “absolute number of lineage negative cells” value (bone marrow cells) was “did decrease”, the “frequency of oligopotent progenitors (Lin−cKit+Sca1−)” value (bone marrow cells) was “declined” and the total marrow cellularity (bone marrow cells) was “did not decrease”.

Reference: patent publication US20110224221A1, “HEMATOPOIETIC PROTECTION AGAINST IONIZING RADIATION USING SELECTIVE CYCLIN-DEPENDENT KINASE 4/6 INHIBITORS” (priority 2008, published 2011)
